Reference: patent US8546615B2, “Solid dapoxetine” (Symed Labs Limited, priority 2009, dated 2013)

Experiment: Storage/thermal stability of the solid form
Assay type: physicochemical
Conditions: stable for any period of time, no test described

Structure (SMILES) | temperature below which the solid is stable
CN(C)[C@@H](CCOc1cccc2ccccc12)c1ccccc1 (racemic) [solid racemic dapoxetine] | below 45 °C
CN(C)[C@@H](CCOc1cccc2ccccc12)c1ccccc1 (single isomer, unassigned) [solid dapoxetine S enantiomer] | below 60 °C
